Here are results for four compounds from patent US3968219A, “Hydroxy phenylbutazone derivatives and their preparation” (Schering Aktiengesellschaft, priority 1974, dated 1976).

Assay [1] concerns stripped skin on the backs of volunteers. In words: vasoconstriction test (topical anti-inflammatory activity on stripped, hyperemic skin). The note with it: for vasoconstriction, colour value (normal skin = 100, untreated stripped skin = 0): 50 mg topical; for activity in vasoconstriction test compared with hydroxyphenylbutazone: topical, Table I, in words. The class given is in vivo. How it is done:
The topical anti-inflammatory activity of the novel hydroxyphenylbutazone derivatives can be determined employing the conventional vasoconstriction test as follows: On the backs of volunteers for the experiment, the stratum corneum was abraded by the application and tearing off of adhesive tape, conducted 20 times at the same spot, thus producing a pronounced hyperemia. Within the stripped area, respectively 50 mg of ointment containing in each case 0.1% and 0.01%, respectively, of the substance to be tested or of the reference substance in a water-oil base was applied on marked areas. The extent of the vasoconstriction was determined one, four, and eight hours after application. In order to evaluate the vasoconstriction, which is a representative syndrome of topical anti-inflammatory activity the color values of the untreated stripped skin and the treated stripped skin were determined and compred with the color value of the normal skin, wherein the color value of the normal skin was set to be equal to 100 and the color value of the untreated stripped skin was fixed at 0. Minor, moderate, and high-grade vasoconstriction was evaluated with values between 0 and 100. The results are shown in Table I below in which two compounds of this invention (III, IV) were compated with hydroxyphenylbutazone (I) and fluorocortolone.

The test system of assay [2] is right ear of male rats (edema). In words: Edema test, Tonelli method (croton oil ear edema). The format is in vivo. The note with it: in pyridine/water/ether/croton oil irritant, 3 hours after application. How it is done: The anti-inflammatory activity of the novel hydroxyphenylbutazone derivatives upon topical application can also be determined in accordance with the Tonelli method, as follows:
The compound to be tested is dissolved in an irritant consisting of 4 parts of pyridine, 1 part of distilled water, 5 parts of ether, and 10 parts of a 4% ether croton oil solution. Felt strips attached to the insides of a slide tweezers are saturated with this text solution and pressed under slight pressure for 15 seconds onto the right ear of male rats weighing 100-160 g.
The left ear remains untreated and serves as control. Three hours after application, the animals are sacrificed and disks of a size of 9 mm. are punched out of their ears. The weight difference between the disk from the right ear and that of the left ear is a measure for the thus-formed edema.
The concentrations of effective agent (ED50) are determined which, when employed, cause a 50% reduction in the formation of edema.

As to `CCCCC1C(=O)N(c2ccccc2)N(c2ccc(OC(=O)CCCCC(=O)Oc3ccc(N4C(=O)C(CCCC)C(=O)N4c4ccccc4)cc3)cc2)C1=O` (stereo not shown) [III, Adipic Acid Bis[4-(4-butyl-3,5-dioxo-2-phenylpyrazolidinyl)-phenyl Ester]], the “vasoconstriction, colour value (normal skin = 100, untreated stripped skin = 0)” value (“vasoconstriction, colour value” for short) came to 34 in assay [1] (0.01% ointment, 1 hour); 66 in assay [1] (0.01% ointment, 4 hours); 70 in assay [1] (0.01% ointment, 8 hours); 44 in assay [1] (0.1% ointment, 1 hour); 72 in assay [1] (0.1% ointment, 4 hours); 78 in assay [1] (0.1% ointment, 8 hours). Moreover, the “activity in vasoconstriction test compared with hydroxyphenylbutazone” value in assay [1] is reported as “substantially more active than hydroxyphenylbutazone”. In addition, in assay [2], the “ED50 (concentration causing 50% reduction in the formation of edema)” value is 2100 µg/mL.

On to `C[C@@H]1C[C@H]2[C@@H]3C[C@H](F)C4=CC(=O)C=C[C@]4(C)[C@H]3[C@@H](O)C[C@]2(C)[C@H]1C(=O)CO` [II, 6α-Fluoro-11β,21-dihydroxy-16α-methyl-1,4-pregnadiene-3,20-dione], for which the “vasoconstriction, colour value” value in assay [1] (0.01% ointment, 1 hour) turned out to be 15; in assay [1] (0.01% ointment, 4 hours) it was 65; in assay [1] (0.01% ointment, 8 hours), 85; in assay [1] (0.1% ointment, 1 hour), 35; in assay [1] (0.1% ointment, 4 hours) it was 75; in assay [1] (0.1% ointment, 8 hours) it was 85. The “ED50 (concentration causing 50% reduction in the formation of edema)” value in assay [2] amounted to 3400 µg/mL.

On to `CCCCC1C(=O)N(c2ccccc2)N(c2ccc(OC(=O)CCCCCC(=O)Oc3ccc(N4C(=O)C(CCCC)C(=O)N4c4ccccc4)cc3)cc2)C1=O` (stereo not shown) [IV, Pimelic Acid Bis[4-(4-butyl-3,5-dioxo-2-phenylpyrazolidinyl)-phenyl Ester]], for which the “vasoconstriction, colour value” value in assay [1] (0.01% ointment, 4 hours) came out at 44; in assay [1] (0.01% ointment, 8 hours), 49; in assay [1] (0.1% ointment, 4 hours), 65; in assay [1] (0.1% ointment, 8 hours) it was 67. Besides, the “activity in vasoconstriction test compared with hydroxyphenylbutazone” value in assay [1] is given as “substantially more active than hydroxyphenylbutazone”. The “ED50 (concentration causing 50% reduction in the formation of edema)” value in assay [2] is 4200 µg/mL.

Regarding `CCCCC1C(=O)N(c2ccccc2)N(c2ccc(O)cc2)C1=O` (stereo not shown) [I, 4-Butyl-1-(4-hydroxyphenyl)-2-phenyl-3,5-pyrazolidinedione], the “vasoconstriction, colour value” value is 18 in assay [1] (0.01% ointment, 1 hour); 25 in assay [1] (0.01% ointment, 4 hours); 24 in assay [1] (0.01% ointment, 8 hours); 15 in assay [1] (0.1% ointment, 1 hour); 35 in assay [1] (0.1% ointment, 4 hours); 33 in assay [1] (0.1% ointment, 8 hours). For the same compound, the “ED50 (concentration causing 50% reduction in the formation of edema)” value in assay [2] is 8000 µg/mL.
